We go through 1 compound from US12433870B2, “Supramolecular photoprotection of a photosensitizer” (Northwestern University, priority 2019, dated 2025).

Assay type in all cases: cell-based, human
The test system of experiment [1] is A2780 cells. Nature of the experiment: Live cell confocal microscopy, cellular uptake and co-localization. How it is done: (§1) A2780 cells (1×10^5 cells/mL, 300 μL) were plated in each well of an 8-well μ-slide (ibidi cell focus) and cultured overnight. PBS solution of ExBox^4+⊃DPP was added to each well and incubated for predetermined time points. For cellular co-localization studies, cells were washed with phenol free DMEM and stained with LysoTracker green (lysosome stain, 1:1000 dilution) or MitoSpy™ Green FM (mitochondria stain, 1:2000 dilution) or NucBlue™ Live ReadyProbes™ Reagent (nuclei stain, 1 drop). For the live-dead assay, cells were incubated with PBS solution of ExBox^4+⊃DPP irradiated for 10 min at […] light intensity, incubated overnight, and stained with Calcein AM (2 μM) and Ethidium homodimer-1 (4 μM). Plated cells were imaged within a humidified chamber using a 63× oil-immersion objective on a SP5 Leica Confocal Microscope using HyD detectors and lasers.

In experiment [2] the test system is A2780 cells. Nature of the experiment: Cellular uptake studies by flow cytometry (MFI). The conditions noted are these: 10 μM, 30 min to 12 h. How it is done:
A2780 cells (5×10^5 cells/mL, 200 μL) were seeded in each well of a 48-well plate and treated with 10 μM PBS solution of ExBox^4+⊃DPP for 30 min, 1 h, 2 h, 6 h, and 12 h. Cells were washed with PBS, trypsinized, and incubated with 50 μL of 1:100 Zombie Aqua fixable cell viability dye for 15 min at 4° C. After incubation, cells were washed with 600 μL PBS, spun at 400 ref for 5 min, and the supernatant was discarded. Cells were then suspended in 100 μL of 2% paraformaldehyde prior to being analyzed using a BD Fortessa flow cytometer. Cells were first gated for singlet events using FSC-A vs. FSC-H, after which debris was excluded used FSC-A vs. SSC-A. Cells gated as Zombie Aqua low were considered live cells, which were then analyzed for their median fluorescence intensity (MFI) in the PE-Cy5 channel for ExBox^4+⊃DPP fluorescence, representing the amount of ExBox^4+⊃DPP taken up by each cell.
(Flow cytometry measures light scatter and fluorescence of single cells or particles in a stream.)

Experiment [3] has as its system A2780 cells. The experiment can be described thus: Calcein-AM/Ethidium homodimer-1 live-dead assay. The conditions noted are these: 10 μM. As for the experimental part:
as §1

Turning to `C1=Cc2nc1cc1ccc([nH]1)c(-c1ccccc1)c1nc(cc3ccc([nH]3)c2-c2ccccc2)C=C1.c1cc2ccc1C[n+]1ccc(cc1)-c1ccc(cc1)-c1cc[n+](cc1)Cc1ccc(cc1)C[n+]1ccc(cc1)-c1ccc(cc1)-c1cc[n+](cc1)C2` [ExBox^4+⊃DPP], the “cell injury under continuous irradiation (real-time confocal)” value in the experiment with A2780 cells [1] (5 min continuous irradiation, 25 mW) is on record as “showed blebs on their surface”. In addition, the “lysosomal co-localization (lysotracker)” value in the experiment with A2780 cells [1] (1 h incubation) is “no lysosomal co-localization”; in the experiment with A2780 cells [1] (incubation time up to 12 h), “co-localization of DPP with the green fluorescence of lysotracker was detected”. The “mitochondrial internalization (mitospy)” value in the experiment with A2780 cells [1] (12 h incubation, 10 μM) was “no mitochondrial internalization”. The “lowest concentration traceable as punctate inside cells” value in the experiment with A2780 cells [1] (red laser excitation, 12 h incubation) turned out to be 0.1. For the same compound, the “uptake and DPP fluorescence signal (MFI)” value in the experiment with A2780 cells [2] is recorded as “time-dependent increase”. For the same compound, the live-dead staining result with A2780 cells [3] (0.156 J cm^−2 light dose for 10 min) is recorded as “red fluorescence”; in the experiment with A2780 cells [3] (dark conditions), “bright green fluorescence”.
